Experimental data from patent publication US4200575A, “7[(2-Thiazolyl)-2-(oxoimino)acetamido]cephalosporin derivatives” (Takeda Chemical Industries, Ltd., priority 1977, dated 1980).

Legend:
Assay in all cases: Minimal inhibitory concentration (M.I.C.), agar dilution method
Settings in all cases: TSA, inoculum 10^7 /ml
S. aureus 1840 = type: cell-based, Staphylococcus aureus
From the text: (§1) (a) Determination of minimal inhibitory concentrations (Tables 1 to 8):
(§2) Procedure: agar dilution method

S. aureus 209P = type: cell-based, Staphylococcus aureus
From the text: as §1, §2

E. coli NIHJ JC-2 = type: cell-based, Escherichia coli
From the text: as §1, §2

E. coli T-7 = type: cell-based, Escherichia coli
From the text: as §1, §2

E. coli 0-111 = type: cell-based, Escherichia coli
From the text: The minimal inhibitory concentrations (M.I.C.) of some representative cephalosporin derivatives of this invention as produced by the procedures described in those examples and the minimal inhibitory concentrations of cephalothin [sodium 7-(2-thienylacetamido)-3-acetoxymethyl-3-cephem-4-carboxylate], cephaloridine [7-(2-thienylacetamido)-3-(1-pyridyl)methyl-3-cephem-4-carboxylic acid betaine] and cefazolin [sodium 7-(1H-tetrazol-1-yl)acetamido-3-(2-methyl-1,3,4-thiadiazol-5-yl)thiomethyl-3-cephem-4-carboxylate], which are among the clinically established and commercially available cephalosporins (as described, for example, in the New England Journal of Medicine 294, 24, 1976 and Journal of Pharmaceutical Science 64, 1899, 1975), both against various bacteria, as well as the therapeutic effects of some respresentative cephalosporin derivatives of this invention and of cephaloridine in infected mice, are shown in tables.
as §1, §2

K. pneumoniae DT = type: cell-based, Klebsiella pneumoniae
From the text: as §1, §2

K. pneumoniae GN 3835 = type: cell-based, Klebsiella pneumoniae
From the text: as §1, §2

S. marcescens IFO 12648 = type: cell-based, Serratia marcescens
From the text: as §1, §2

S. marcescens TN 24 = type: cell-based, Serratia marcescens
From the text: as §1, §2

P. vulgaris GN 4413 = type: cell-based, Proteus vulgaris
From the text: as §1, §2

P. vulgaris IFO 3988 = type: cell-based, Proteus vulgaris
From the text: as §1, §2

P. mirabilis GN 4359 = type: cell-based, Proteus mirabilis
From the text: as §1, §2

P. morganii IFO 3168 = type: cell-based, Proteus morganii
From the text: as §1, §2

P. rettgeri GN4733 = type: cell-based, Proteus rettgeri
From the text: as §1, §2

P. rettgeri TN 338 = type: cell-based, Proteus rettgeri
From the text: as §1, §2

C. freundii GN 1706 = type: cell-based, Citrobacter freundii
From the text: as §1, §2

C. freundii GN 99 = type: cell-based, Citrobacter freundii
From the text: as §1, §2

E. cloacae TN 1282 = type: cell-based, Enterobacter cloacae
From the text: as §1, §2

| SMILES | minimal inhibitory concentration (M.I.C.) (S. aureus 1840) | minimal inhibitory concentration (M.I.C.) (S. aureus 209P) | minimal inhibitory concentration (M.I.C.) (E. coli NIHJ JC-2) | minimal inhibitory concentration (M.I.C.) (E. coli T-7) | minimal inhibitory concentration (M.I.C.) (E. coli 0-111) | minimal inhibitory concentration (M.I.C.) (K. pneumoniae DT) | minimal inhibitory concentration (M.I.C.) (K. pneumoniae GN 3835) | minimal inhibitory concentration (M.I.C.) (S. marcescens IFO 12648) | minimal inhibitory concentration (M.I.C.) (S. marcescens TN 24) | minimal inhibitory concentration (M.I.C.) (P. vulgaris GN 4413) | minimal inhibitory concentration (M.I.C.) (P. vulgaris IFO 3988) | minimal inhibitory concentration (M.I.C.) (P. mirabilis GN 4359) | minimal inhibitory concentration (M.I.C.) (P. morganii IFO 3168) | minimal inhibitory concentration (M.I.C.) (P. rettgeri GN4733) | minimal inhibitory concentration (M.I.C.) (P. rettgeri TN 338) | minimal inhibitory concentration (M.I.C.) (C. freundii GN 1706) | minimal inhibitory concentration (M.I.C.) (C. freundii GN 99) | minimal inhibitory concentration (M.I.C.) (E. cloacae TN 1282) |
| --- | --- | --- | --- | --- | --- | --- | --- | --- | --- | --- | --- | --- | --- | --- | --- | --- | --- | --- |
| Cc1nnc(SCC2=C(C(=O)[O-])N3C(=O)C(NC(=O)Cn4cnnn4)[C@H]3SC2)s1.[Na+] (some centres unmarked) [Cefazolin, sodium 7-(1H-tetrazol-1-yl)acetamido-3-(2-methyl-1,3,4-thiadiazol-5-yl)thiomethyl-3-cephem-4-carboxylate, reference compound] | 1.56 | 0.39 | 1.56 | 50 | 1.56 | 1.56 | 6.25 | > 100 | > 100 | > 100 | 3.13 | 6.25 | 100 | 100 | ≤ 0.2 | > 100 | 12.5 |  |
| CNC(=O)O/N=C(\C(=O)NC1C(=O)N2C(C(=O)O)=C(CSc3nnnn3CCO)CSC12)c1csc(=N)[nH]1 (centres unmarked) [Example IV - 4] | 3.13 | 3.13 | ≤ 0.2 | 3.13 | ≤ 0.2 | ≤ 0.2 | 0.39 | 3.13 | 3.13 | 12.5 | ≤ 0.2 | ≤ 0.2 | ≤ 0.2 | 0.39 | ≤ 0.2 | 0.39 | ≤ 0.2 | 3.13 |
| CC(C)NC(=O)O/N=C(\C(=O)NC1C(=O)N2C(C(=O)O)=C(CSc3nnnn3C)CSC12)c1csc(=N)[nH]1 (centres unmarked) [Example II - 18] | 3.13 | 1.56 | 0.2 | 3.13 | 0.024 | 0.1 | 1.56 | 3.13 | 3.13 | 25 | 0.1 | 0.39 | 0.78 | 0.2 | ≤ 0.012 | 0.78 | 0.39 | 3.13 |
| CCNC(=O)O/N=C(\C(=O)NC1C(=O)N2C(C(=O)O)=C(CSc3nnc(C)s3)CSC12)c1csc(=N)[nH]1 (centres unmarked) [Example II - 10] | 1.56 | 0.78 | 0.78 | 3.13 | 0.2 | 0.2 | 0.78 | 3.13 | 1.56 | 12.5 | 0.39 | 0.78 | 0.39 | 0.78 | ≤ 0.05 | 0.78 | 0.39 | 3.13 |
| CNC(=O)O/N=C(\C(=O)NC1C(=O)N2C(C(=O)O)=C(CSc3nnnn3CCN(C)C)CSC12)c1csc(=N)[nH]1 (stereo not drawn) [Example IV - 3, 7-[2-(2-imino-4-thiazolin-4-yl)-2-methylcarbamoyloximinoacetamido]-3-[1-(2-dimethylammonium)ethyl-1H-tetrazol-5-yl]thiomethyl-3-cephem-4-carboxylate (syn-isomer)] | 3.13 | 1.56 | 0.39 | 3.13 | ≤ 0.2 | ≤ 0.2 | 0.39 | 6.25 | 6.25 | 100 | 0.39 | 0.39 | 0.39 | 0.39 | ≤ 0.2 | 0.78 | ≤ 0.2 | 1.56 |
| CNC(=O)O/N=C(\C(=O)NC1C(=O)N2C(C(=O)O)=C(CSc3nnc(CO)n3C)CSC12)c1csc(=N)[nH]1 (centres unmarked) [Example IV - 5] | 6.25 | 6.25 | ≤ 0.2 | 1.56 | ≤ 0.2 | ≤ 0.2 | 0.39 | 3.13 | 3.13 | 25 | 0.39 | 0.39 | 0.39 | 0.78 | ≤ 0.2 | 0.78 | 0.39 | 3.13 |
| CNC(=O)O/N=C(\C(=O)NC1C(=O)N2C(C(=O)O)=C(COC(C)=O)CSC12)c1csc(=N)[nH]1 (stereo not drawn) [Example II - 1, sodium 7-[2-(2-imino-4-thiazolin-4-yl)-2-methylcarbamoyloximinoacetamido]-3-acetoxymethyl-3-cephem-4-carboxylate (syn-isomer)] | 3.13 | 1.56 | 0.1 | 0.39 | ≤ 0.012 | 0.05 | 0.1 | 3.13 | 6.25 | 12.5 | 0.05 | 0.1 | 0.39 | 0.05 | ≤ 0.012 | 0.39 | 0.1 | 1.56 |
| CCNC(=O)O/N=C(\C(=O)NC1C(=O)N2C(C(=O)O)=C(COC(N)=O)CSC12)c1csc(=N)[nH]1 (centres unmarked) [Example II - 8] | 3.13 | 3.13 | 0.2 | 1.56 | 0.024 | 0.05 | 0.2 | 6.25 | 6.25 | 100 | 0.1 | 0.1 | 3.13 | 0.05 | ≤ 0.012 | 0.39 | 0.1 | 12.5 |
